Where two headings read alike, the source gives them in different places.
Tests used:
[1] = system: PC-3 androgen independent metastatic prostate cancer cells; assay: Cell viability screen (CCK-8), PC-3 cells; format: cell-based; conditions: CCK-8, 96 hours, read-out: IC50, inhibition of cell viability
Experimental: FIGS. 2A-2H. Dose response curves. Does response curves for cell lines treated with 6, 10.5, 18.6, 32.4, 57.5 and 100 μM of compound (log) for 96 hours using % cell viability derived from CCK-8 absorbance readings at 450 nm (n=3, mean±SEM). A DMSO equivalent control (n=2±SEM) was also included for each cell line tested: Ea.hy.926 endothelial cells (Endo), LNCaP androgen dependent metastatic prostate cancer cells, TC2-Ras mouse prostate cancer cells, PC-3 androgen independent metastatic prostate cancer cells, and SH-SY5Y neruoblastoma cells. […]
Cell Viability Screen. […] Cell viability was measured by using the cell counting kit-8 (CCK-8, Dojindo). […] CCK-8 absorbance was measured at 450 nm using a GloMax Multimode Reader (Promega). Readings were performed the day after seeding to normalize for variations in cell seeding and after 96 hours of compound treatment. After each reading, CCK-8 media was removed and replaced with media containing compound as described previously. […] As described previously, an initial baseline CCK-8 reading was performed at 24 hours post seeding to correct for variations in seeding density. First, 450 nm values for each well were subtracted from media only readings to correct for baseline absorbance. Then, the 96 hour readings were normalized to their respective 24 hour readings to control for seeding variation. […]

[2] = system: PC-3 cells; assay: RT-qPCR of PEDF-signaling associated genes; format: cell-based; conditions: PC-3, 50 μM, 48 hours
Experimental: Expression of PEDF-signaling associated genes from PC-3 cells treated with 50 μM C3, compared to DMSO control and normalized to GAPDH (n=3, mean±SEM). A Holm-Sidak multiple t test was used for statistical analysis (*p<0.05,**O<0.01, ***<0.001). […] Average tube count for 0.1% DMSO, 0.5% DMSO, and 1, 10 and 50 μM treatment with C3 (n=7, mean±SEM). 1 and 10 μM C3 were compared with respective 0.5% DMSO (unpaired two-tailed t test, ****<0.0001). 50 μM C3 was compared with respective 0.1% DMSO (unpaired two-tailed t test p<0.0001).
RT-qPCR. PC-3 cells were seeded in 6 well plates at 3×10^5 cells per well and incubated with 50 μM C3 or DMSO equivalent in 1×RPMI-1640, 1× anti-anti, and 2% FBS (ThermoFisher) for 48 hours. PC-3 cells were lifted using 20 mM EDTA in 1×DPBS and pelleted before isolating total RNA using the RNeasy Mini Kit (Qiagen). 1 μg of RNA per sample was reverse transcribed using the amfiRivert cDNA synthesis master mix (GenDEPOT). Real-time PCR wells contained 1 μL cDNA template, 2×SYBR Green Master Mix (Applied Biosystems), and 20 μM forward and reverse primers. Primer sequences are provided in Table 2. qRT-PCR was performed on an Eppendorf Realplex 2S (Eppendorf), using: 40×95° C. for 3 mins; 95° C. for 3 s; 60° C. for 30 s; 72° C. for 8 s and analyzed using EP Realplex software (version 2.2). Fold changes were normalized to GAPDH using the ddCT method.
Genes involved in migration/invasion and/or extracellular matrix (ECM) communication also were assayed.

SMILES: O=C(c1cc(F)cc2c1OCOC2)N1CCN(C2c3ccccc3-c3ccccc32)CC1 [Compound C3, [4-(9h-fluoren-9-yl)piperazino](6-fluoro-4h-1,3-benzodioxin-8-yl)methanone]
- IC50 [1]: ~1000 nM
- IC50 ([1]; Homo sapiens, PC-3, 96 h): ~800 nM
- VEGF mRNA, fold change [2]: ~4 FC
- VEGFR2 transcription, fold change [2]: > −15 fold change
- thrombospondin-1 (THBS1) mRNA, fold change [2]: > 10 FC

Source: patent US11022604B2, “Dock derived compound against laminin receptor (37 LR) and uses thereof” (Purdue Research Foundation, priority 2017, dated 2021)
